# Data reported in ChEMBL document CHEMBL1126831, “A structure-activity study of four dopamine D-1 and D-2 receptor antagonists, representing the phenylindan, -indene, and -indole structural classes of compounds” (J Med Chem, 1993).
# Columns and labels:
# D(1A) dopamine receptor = D(1A) dopamine receptor (Rattus norvegicus, UniProt P18901); assay: Binding affinity towards dopamine receptor D1 by displacement of [3H]-SCH- radioligand in rat striatal membranes; assay type: cell membranes, Membrane
# D(2) dopamine receptor = D(2) dopamine receptor (Rattus norvegicus, UniProt P61169); assay: Binding affinity towardst dopamine D2 receptor by displacement of [3H]-SPI radioligand in rat striatal membranes; assay type: cell membranes, Membrane
# Chain of D(2) dopamine receptor (P61169 whole entry): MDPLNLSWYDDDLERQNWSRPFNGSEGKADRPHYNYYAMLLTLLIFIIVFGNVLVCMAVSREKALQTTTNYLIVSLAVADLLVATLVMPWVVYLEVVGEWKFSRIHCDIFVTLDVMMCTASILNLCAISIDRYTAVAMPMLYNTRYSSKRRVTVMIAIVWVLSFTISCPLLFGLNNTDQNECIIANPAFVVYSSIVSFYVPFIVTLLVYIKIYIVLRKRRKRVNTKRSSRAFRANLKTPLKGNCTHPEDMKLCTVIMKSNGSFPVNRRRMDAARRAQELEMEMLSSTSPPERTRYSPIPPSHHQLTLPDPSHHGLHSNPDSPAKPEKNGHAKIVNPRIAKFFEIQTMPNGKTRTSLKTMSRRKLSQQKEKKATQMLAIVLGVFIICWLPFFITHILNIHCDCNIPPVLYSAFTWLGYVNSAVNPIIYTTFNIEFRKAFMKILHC
# Chain of D(1A) dopamine receptor (P18901 whole entry): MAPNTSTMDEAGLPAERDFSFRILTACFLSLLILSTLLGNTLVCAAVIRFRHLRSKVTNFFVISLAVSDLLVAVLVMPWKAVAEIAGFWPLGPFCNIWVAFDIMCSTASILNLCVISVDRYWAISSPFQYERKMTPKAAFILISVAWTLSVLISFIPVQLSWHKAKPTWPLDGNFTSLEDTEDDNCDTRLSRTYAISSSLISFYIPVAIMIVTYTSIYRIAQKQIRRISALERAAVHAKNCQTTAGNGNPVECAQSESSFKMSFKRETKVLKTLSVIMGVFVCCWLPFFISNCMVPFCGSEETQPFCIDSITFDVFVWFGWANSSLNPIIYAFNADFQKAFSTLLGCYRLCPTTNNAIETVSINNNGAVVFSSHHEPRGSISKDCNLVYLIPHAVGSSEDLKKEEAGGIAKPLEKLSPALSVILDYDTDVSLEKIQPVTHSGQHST
Structure (SMILES),IC50 (D(1A) dopamine receptor) [nM],IC50 (D(2) dopamine receptor) [nM]
CN1CC=C(c2cn(-c3ccc(F)cc3)c3ccc(Cl)cc23)CC1,9.8,–
CN1CC=C(C2=CC(c3ccc(F)cc3)c3ccc(Cl)cc32)CC1 (stereo not drawn),23,5.1

# Results, then the compound that gave them:
IC50 (D(1A) dopamine receptor) [nM],IC50 (D(2) dopamine receptor) [nM],Structure (SMILES)
19,–,OCCN1CCN([C@@H]2C[C@@H](c3ccc(F)cc3)c3ccc(C(F)(F)F)cc32)CC1 [TEFLUDAZINE]
9.5,12,CN1CCN(C2CC(c3ccc(F)cc3)c3ccc(Cl)cc32)CC1 (stereo not drawn)
12,19,CN1CCC(C2=CC(c3ccc(F)cc3)c3ccc(Cl)cc32)CC1 (stereo not drawn)
